# Results taken from ChEMBL document CHEMBL1155486, “From 6-aminoquinolone antibacterials to 6-amino-7-thiopyranopyridinylquinolone ethyl esters as inhibitors of Staphylococcus aureus multidrug efflux pumps” (2010).
# Legend:
# Staphylococcus aureus [1] = assay: Antibacterial activity against wild-type norA expressing Staphylococcus aureus SA-1199 by microdilution technique; assay type: functional
# Escherichia coli = assay: Antibacterial activity against Escherichia coli ATCC 25922 by microdilution technique; assay type: functional
# Staphylococcus aureus [2] = assay: Antibacterial activity against Staphylococcus aureus ATCC 25923 by microdilution technique; assay type: functional
# Staphylococcus aureus [3] = assay: Antibacterial activity against Staphylococcus aureus SA-K1904 bearing norA++ efficient mutation by microdilution technique; assay type: functional
# Staphylococcus aureus [4] = assay: Antibacterial activity against Staphylococcus aureus SA-K1902 bearing norA- deficient mutation by microdilution technique; assay type: functional
# Staphylococcus aureus [5] = assay: Antibacterial activity against Staphylococcus aureus SA-1199B norA++ and A116E GrlA mutation by microdilution technique; assay type: functional
# Staphylococcus aureus [6] = assay: Antibacterial activity against Staphylococcus aureus K1305 bearing wild-type GyrA and E84K mutant GrlA by microdilution technique; assay type: functional
# Staphylococcus aureus [7] = assay: Antibacterial activity against Staphylococcus aureus K1035 bearing wild-type GyrA and S80F mutant GrlA by microdilution technique; assay type: functional
# Staphylococcus aureus [8] = assay: Antibacterial activity against Staphylococcus aureus K1628 bearing S84L mutant GyrA and S80F mutant GrlA by microdilution technique; assay type: functional
# Staphylococcus aureus [9] = assay: Antibacterial activity against Staphylococcus aureus K1134 bearing wild-type GyrA and S80Y mutant GrlA by microdilution technique; assay type: functional
# Staphylococcus aureus [10] = assay: Antibacterial activity against methicillin and ciprofloxacin-resistant Staphylococcus aureus 25A by microdilution technique; assay type: functional
# Staphylococcus aureus [11] = assay: Antibacterial activity against Staphylococcus aureus K1640 bearing S84L mutant GyrA and S80Y mutant GrlA by microdilution technique; assay type: functional
# Staphylococcus aureus [12] = assay: Antibacterial activity against Staphylococcus aureus SA-1199B by EtBr efflux assay; assay type: functional
# [13] = target: T1, Quinolone resistance protein NorA (Staphylococcus aureus) (UniProt P0A0J7); assay: Inhibition of NorA in Staphylococcus aureus SA-1199B assessed as reduction in ethidium bromide efflux at 50 uM by fluorimetry; set-up: scale not given: the % may be the effect or the level left
# T1 sequence (whole entry): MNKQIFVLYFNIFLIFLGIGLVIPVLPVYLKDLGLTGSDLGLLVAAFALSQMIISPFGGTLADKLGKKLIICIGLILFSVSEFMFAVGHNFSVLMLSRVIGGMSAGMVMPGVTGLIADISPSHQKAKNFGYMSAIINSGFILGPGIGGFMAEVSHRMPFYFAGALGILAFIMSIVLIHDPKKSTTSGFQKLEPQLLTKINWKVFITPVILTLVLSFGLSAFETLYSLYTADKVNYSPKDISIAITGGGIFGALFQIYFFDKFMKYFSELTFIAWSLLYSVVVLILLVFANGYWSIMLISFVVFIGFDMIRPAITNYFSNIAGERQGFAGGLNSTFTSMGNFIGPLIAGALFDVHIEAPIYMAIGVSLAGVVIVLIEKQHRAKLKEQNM
Structure (SMILES),MIC (Staphylococcus aureus [1]),MIC (Escherichia coli),MIC (Staphylococcus aureus [2]),MIC (Staphylococcus aureus [3]),MIC (Staphylococcus aureus [4]),MIC (Staphylococcus aureus [5]),MIC (Staphylococcus aureus [6]),MIC (Staphylococcus aureus [7]),MIC (Staphylococcus aureus [8]),MIC (Staphylococcus aureus [9]),MIC (Staphylococcus aureus [10]),MIC (Staphylococcus aureus [11]),MIC (Staphylococcus aureus [12]),Activity [13],MIC50 (Staphylococcus aureus [12])
Cc1c(N2CCC3=C(C2)/C(=N/O)CCS3)c(N)cc2c(=O)c(C(=O)O)cn(C3CC3)c12,0.63 µg/mL,0.5 µg/mL,0.31 µg/mL,0.63 µg/mL,0.63 µg/mL,2.5 µg/mL,–,–,–,–,–,–,–,–,–
COc1c(N2C[C@@H]3CCCN[C@@H]3C2)c(F)cc2c(=O)c(C(=O)O)cn(C3CC3)c12 [MOXIFLOXACIN],0.08 µg/mL,< 0.08 µg/mL,< 0.08 µg/mL,0.08 µg/mL,0.08 µg/mL,0.25 µg/mL,0.31 µg/mL,0.31 µg/mL,5 µg/mL,0.31 µg/mL,2 µg/mL,2.5 µg/mL,–,–,–
Cc1c(N2CCC3=C(C2)C(=O)CCS3)c(N)cc2c(=O)c(C(=O)O)cn(C3CC3)c12,0.31 µg/mL,1 µg/mL,0.25 µg/mL,0.31 µg/mL,0.31 µg/mL,0.63 µg/mL,1.25 µg/mL,1.25 µg/mL,> 10 µg/mL,1.25 µg/mL,4 µg/mL,> 10 µg/mL,–,–,–
O=C(O)c1cn(C2CC2)c2cc(N3CCNCC3)c(F)cc2c1=O [CIPROFLOXACIN],0.31 µg/mL,≤ 0.12 µg/mL,0.5 µg/mL,2.5 µg/mL,0.31 µg/mL,10 µg/mL,2.5 µg/mL,2.5 µg/mL,> 10 µg/mL,2.5 µg/mL,32 µg/mL,> 10 µg/mL,–,–,–
CCOC(=O)c1cn(C2CC2)c2c(C)c(N3CCC4=C(C3)C(=O)CCS4)c(N)cc2c1=O,–,–,–,–,–,–,–,–,–,–,–,–,> 100 µg/mL,36.8%,–
CO/N=C1/C2=C(CCN(c3cc4c(cc3F)c(=O)c(C(=O)O)cn4C3CC3)C2)SCC1C (stereo not given),2.5 µg/mL,64 µg/mL,2 µg/mL,2.5 µg/mL,2.5 µg/mL,5 µg/mL,–,–,–,–,8 µg/mL,–,–,–,–
CC1CSC2=C(CN(c3cc4c(cc3N)c(=O)c(C(=O)O)cn4C3CC3)CC2)C1=O (stereo not given),3.13 µg/mL,64 µg/mL,6.25 µg/mL,6.25 µg/mL,1.56 µg/mL,12.5 µg/mL,–,–,–,–,16 µg/mL,–,–,–,–
CCOC(=O)c1cn(C2CC2)c2c(C)c(N3CCC4=C(C3)C(O)CCS4)c(N)cc2c1=O (stereo not given),–,–,–,–,–,–,–,–,–,–,–,–,> 100 µg/mL,47.3%,–
CC1CSC2=C(CN(c3cc4c(cc3F)c(=O)c(C(=O)O)cn4C3CC3)CC2)C1=O (stereo not given),0.08 µg/mL,8 µg/mL,0.31 µg/mL,0.16 µg/mL,0.16 µg/mL,0.16 µg/mL,1.25 µg/mL,1.25 µg/mL,> 10 µg/mL,1.25 µg/mL,32 µg/mL,> 10 µg/mL,–,–,–
CCOC(=O)c1cn(C2CC2)c2cc(N3CCC4=C(C3)C(=O)CCS4)c(N)cc2c1=O,–,–,–,–,–,–,–,–,–,–,–,–,> 100 µg/mL,35.7%,–
COC(=O)[C@H]1[C@H]2C[C@@H]3c4[nH]c5cc(OC)ccc5c4CCN3C[C@H]2C[C@@H](OC(=O)c2cc(OC)c(OC)c(OC)c2)[C@@H]1OC,–,–,–,–,–,–,–,–,–,–,–,–,–,84.8%,–
CCOC(=O)c1cn(C2CC2)c2cc(N3CCNCC3)c(F)cc2c1=O [CIPROFLOXACIN ETHYL ESTER],–,–,–,–,–,–,–,–,–,–,–,–,–,20.8%,> 100 µg/mL
CCOC(=O)c1cn(C2CC2)c2c(C)c(N3CCC4=C(C3)C(=O)C(C)CS4)c(N)cc2c1=O (stereo not given),–,–,–,–,–,–,–,–,–,–,–,–,> 100 µg/mL,50.5%,–
CC1CSC2=C(CN(c3cc4c(cc3F)c(=O)c(C(=O)O)cn4C3CC3)CC2)/C1=N/O (stereo not given),0.16 µg/mL,32 µg/mL,0.31 µg/mL,0.31 µg/mL,0.16 µg/mL,0.31 µg/mL,1.25 µg/mL,1.25 µg/mL,> 10 µg/mL,1.25 µg/mL,4 µg/mL,> 10 µg/mL,–,–,–
Cc1c(N2CCC3=C(C2)C(=O)C(C)CS3)c(N)cc2c(=O)c(C(=O)O)cn(C3CC3)c12 (stereo not given),0.16 µg/mL,64 µg/mL,0.08 µg/mL,0.16 µg/mL,0.16 µg/mL,0.31 µg/mL,1.25 µg/mL,1.25 µg/mL,> 10 µg/mL,1.25 µg/mL,32 µg/mL,> 10 µg/mL,–,–,–
CO/N=C1\CCSC2=C1CN(c1cc3c(cc1F)c(=O)c(C(=O)O)cn3C1CC1)CC2,1.25 µg/mL,32 µg/mL,0.25 µg/mL,1.25 µg/mL,1.25 µg/mL,2.5 µg/mL,–,–,–,–,1 µg/mL,–,–,–,–
